The values that follow come from PMC3350427, “In vitro antiproliferative/cytotoxic activity on cancer cell lines of a cardanol and a cardol enriched from Thai Apis mellifera propolis” (BMC Complementary and Alternative Medicine, 2012).

Molecules are shown by their SMILES. Values after ≈ are worked out from the molar mass of the structure shown. Values joined by “and” are separate entries in the source; they are usually repeats but may differ in a detail not shown here. Equal values may be shown once. Read-outs that look alike come from different tables or passages of the source. A value given as a limit tells only on which side of the number the result lay.

The subject of one data set is B16-F10 melanoma cells. Also noted: method as in PMID 20623613. The note with it: cited from earlier work.
Another data set concerns HeLa tumor cells. Also noted: method as in PMID 19497755. The note with it: cited from earlier work.
Data set [1] deals with BT474 cells (duet carcinoma). The data set is described as follows: MTT antiproliferative/cytotoxic assay, BT474. It is filed as cell-based, human. The note with it: for IC50: Homo sapiens, BT-474, BT474, 72 h exposure, MTT, read-out: IC50, in vitro antiproliferative/cytotoxic activity. From the text: (§1) The five selected cancer cell lines used in this research were derived from human duet carcinoma (BT474, ATCC No. HTB 20), undifferentiated lung (Chaco I, National Cancer Institute), liver hepatoblastoma (Hep-G2, ATCC No. HB8065), gastric carcinoma (KATO-III, ATCC No. HTB 103) and human colon adenocarcinoma (SW620, ATCC No. CCL 227) cancers. In addition, the non-transformed human foreskin fibroblast cell line (Hs27, ATCC No. CRL 1634) was used as a comparative control. All cell lines were obtained from the Institute of Biotechnology and Genetic Engineering, Chulalongkorn University. The five cancer cell lines were cultured in RPMI 1640 medium containing 5% (v/v) fetal calf serum (FCS), while the Hs27 cell line was cultured in Basal Iscove medium containing 5% (v/v) FCS, at 37°C with 5% (v/v) CO2 [28].
(§2) The MTT assay was performed as reported by Santos et al. and Hernandez et al.. […] The supernatant was then removed, the cells permeabilized and the formazan crystals dissolved by aspiration in 150 μl of DMSO and 25 μl of 0.1 M glycine prior to measuring the absorbance at 540 nm by a microplate reader. […] By assuming an equal mitochondrial metabolic activity per living cell, the absorbance is then related to the relative number of viable cells and so is reduced, relative to the control, by any antiproliferation and/or cytotoxic activity of the test compound.
The absorbance at 540 nm of the test compound treated cancer cells and the solvent only control was used to calculate the relative number of viable cells, setting that for the control as 100%. The relative number of viable cells, as a % of the control, was then calculated as follows: […]
(§3) where (Abs of sample) and (Abs of control) are defined as the absorbance at 540 nm of the treated cells and the control cells, respectively.
The IC50 values were graphically obtained by plotting the absorbance obtained against the corresponding different concentrations of the test compound used, and are reported as the mean ± 1 standard error (SE). Data were statistically analyzed using the Kruskal-Wallis One Way Analysis of Variance. […]

For data set [2], the system named is human colorectal cancer cell line (CRC). Also noted: method as in PMID 15996024. The settings on record: 72 h treatment, cited from earlier work.
In data set [3] the test system is Hep-G2 cells (liver hepatoblastoma). Kind of data set: MTT antiproliferative/cytotoxic assay, Hep-G2. Format: cell-based. The settings on record: Homo sapiens, HepG2, Hep-G2, 72 h exposure, read-out: IC50, in vitro antiproliferative/cytotoxic activity.
Text: (§4) The five selected cancer cell lines used in this research were derived from human duet carcinoma (BT474, ATCC No. HTB 20), undifferentiated lung (Chaco I, National Cancer Institute), liver hepatoblastoma (Hep-G2, ATCC No. HB8065), gastric carcinoma (KATO-III, ATCC No. HTB 103) and human colon adenocarcinoma (SW620, ATCC No. CCL 227) cancers. In addition, the non-transformed human foreskin fibroblast cell line (Hs27, ATCC No. CRL 1634) was used as a comparative control. All cell lines were obtained from the Institute of Biotechnology and Genetic Engineering, Chulalongkorn University. […]
as §2
(§5) The absorbance at 540 nm of the test compound treated cancer cells and the solvent only control was used to calculate the relative number of viable cells, setting that for the control as 100%. […]

The test system of data set [4] is Hs27 cells. The data set is described as follows: Cell morphology in culture, Hs27. It is filed as cell-based, human. The note with it: Hs27, up to 96 h, same doses as for SW620. The procedure: (§6) The morphology of the SW620 or Hs27 cells treated with each test compound was compared to those treated with only the DMSO solvent as the control. Cells were released by standard trypsin and aspiration, centrifugally washed at 2,000 × g at 15-25°C for 5 min and finally the cell pellet was resuspended in 200 μl of PBS. To this 20 μl of proteinase K (> 600 mAU/ml) was added and total DNA was extracted using a QIAMP mini kit (Qiagen, cat. no. 51304), as per the manufacturer's instructions. […] After electrophoresis, the gel was stained with 10 μg/ml of ethidium bromide (EtBr) for 10 min, destained in distilled water for 20 min and the DNA visualized by ultraviolet transillumination.

Data set [5] is described as follows: MTT antiproliferative/cytotoxic assay, non-transformed Hs27. Format: cell-based. The note with it: human, Hs27 non-transformed foreskin fibroblast cells, read-out: IC50, in vitro antiproliferative/cytotoxic activity.
Text: as §4, §2, §5

In data set [6] the test system is Hs27 cells. Kind of data set: DNA fragmentation (agarose-TBE gel), Hs27. It is filed as cell-based, human. The settings on record: Hs27, 72 h. The procedure: as §6
Data set [7] deals with SW620 cells. The data set is described as follows: DNA fragmentation (agarose-TBE gel), SW620. It is filed as cell-based, human. The settings on record: SW620, 72 h at IC50, agarose-TBE gel. The procedure: as §6
Data set [8] relates to KATO-III cells (gastric carcinoma). Kind of data set: MTT antiproliferative/cytotoxic assay, KATO-III. It is filed as cell-based. The settings on record: Homo sapiens, 72 h exposure, read-out: IC50, in vitro antiproliferative/cytotoxic activity.
Text: as §4, §2, §5

In data set [9] the test system is five human cancer cell lines (BT474, Chaco, Hep-G2, KATO-III, SW620). The data set is described as follows: MTT assay, summary over the five cancer cell lines. The settings on record: 72 h exposure, read-out: IC50 values, range across the five cancer cell lines. Format: cell-based.
Text: as §4, §2, §5
(Tetrazolium dyes change colour on reduction, which living cells bring about.)

Data set [10] concerns SW620 cells. The data set is described as follows: Cell morphology in culture, SW620. Format: cell-based, human. The settings on record: at IC50 ([…] / 3.0 μg/ml). The protocol:
as §6

Data set [11] deals with SW620 cells (colon adenocarcinoma). The data set is described as follows: MTT antiproliferative/cytotoxic assay, SW620. Format: cell-based, human. The note with it: for IC50 / IC50, in vitro antiproliferative/cytotoxic activity: SW620, 72 h exposure, MTT; for IC50: read-out: IC50, in vitro antiproliferative/cytotoxic activity.
Text: as §1
The MTT assay was performed as reported by Santos et al. and Hernandez et al.. For each of the five cancer cell lines, 5 × 10^3 cells in 200 μl of RPMI 1640 medium containing 5% (v/v) FCS were transferred per well of a 96 well tissue culture plate, and incubated at 37°C in 5% (v/v) CO2 for 24 h prior to the addition of 2 μl/well of the test extract in dimethylsulfoxide (DMSO) at various final concentrations. The addition of 2 μl/well of DMSO alone was used as the control. Cells were then incubated as above for 72 h before 10 μl of 5 mg/ml MTT was added and incubated for another 4 h. The supernatant was then removed, the cells permeabilized and the formazan crystals dissolved by aspiration in 150 μl of DMSO and 25 μl of 0.1 M glycine prior to measuring the absorbance at 540 nm by a microplate reader. Three replications of each trial were performed. By assuming an equal mitochondrial metabolic activity per living cell, the absorbance is then related to the relative number of viable cells and so is reduced, relative to the control, by any antiproliferation and/or cytotoxic activity of the test compound.
The absorbance at 540 nm of the test compound treated cancer cells and the solvent only control was used to calculate the relative number of viable cells, setting that for the control as 100%. The relative number of viable cells, as a % of the control, was then calculated as follows:
Therelative(% )numberofviablecells = (Absofsample)×100/(Absofcontrol)
as §3
The IC50 values were graphically obtained by plotting the absorbance obtained against the corresponding different concentrations of the test compound used, and are reported as the mean ± 1 standard error (SE). Data were statistically analyzed using the Kruskal-Wallis One Way Analysis of Variance. Significance was accepted at the P < 0.05 level.

Data set [12] concerns five cancer cell lines and the control Hs27 cell line. Kind of data set: MTT assay, summary over the five cancer cell lines and Hs27. It is filed as cell-based. The settings on record: Homo sapiens, 72 h exposure, read-out: IC50 values, range across the five cancer cell lines and the control Hs27 cell line.
Text: as §4, §2, §5

In data set [13] the test system is Chaco cells (undifferentiated lung cancer). Kind of data set: MTT antiproliferative/cytotoxic assay, Chaco. The settings on record: Homo sapiens, 72 h exposure, read-out: IC50, in vitro antiproliferative/cytotoxic activity. It is filed as cell-based.
Text: as §4, §2, §5

Where [14] appears, read: read-out: IC50, antiproliferative activity.
Where [15] appears, read: mean ± 1 SE, ND in Table 4 = no IC50 obtained, no significant activity in tested concentration range.

As for `CCCCCCCCCCCCCCCc1cc(O)cc(O)c1` [cardol (C15:0)], in the data set with B16-F10 melanoma cells, the “IC50, cytotoxicity” value was 8.352 µg/mL (≈ 26.1 µM); the complete lethality concentration was 40 μM and 13.92 μg/ml. In the data set on B16-F10 melanoma cells (read-out: IC50, cytotoxicity), the IC50 is 24 µM.

On to `CC(C)=CC[C@H]1C[C@@]2(CC=C(C)C)C(=O)[C@](C(=O)c3ccccc3)(C(=O)C3=C2O[C@H](C(C)(C)O)C3)C1(C)C` [hyperibone A], for which the “IC50, antiproliferative activity” value in the data set on HeLa tumor cells was 0.091 µg/mL (≈ 0.175 µM). In the data set on HeLa tumor cells (setting [14]), the IC50 is 0.176 µM.

On to `O=C(/C=C/c1ccc(O)c(O)c1)OCCc1ccccc1` [CAPE, caffeic acid phenethyl ester], for which the “fold higher IC50 of CAPE than compound 2 (cardol) on BT474” value in data set [1] (in terms of molarity, CAPE on MDA-231/MCF-7) is around 1.5 fold. Moreover, the IC50 in data set [2] (setting [14]) was 22.7 µM. In addition, in [2], the “IC50, antiproliferative activity” value was 6.47 µg/mL (≈ 22.8 µM).

Consider `CCCCCCCCCCCCCCCc1cc(O)cc(O)c1` [Compound 2], for which the IC50 in data set [3] (setting [15]) was found to be 5.97 ± 0.15 µg/mL; in data set [3], 1.3 ± 0.33 µM; in [1] (setting [15]) it was 4.41 ± 0.15 µg/mL; in [1], 9.61 ± 0.33 µM; in [8] (setting [15]), 4.03 ± 0.13 µg/mL; in data set [8] it was 8.78 ± 0.28 µM. For the same molecule, the IC50 in [9] is 3.13 µg/mL to 6 µg/mL and 6.82 µM to 13.1 µM; in data set [11] (Homo sapiens, SW-620, 72 h, mean ± 1 SE, ND in Table 4 = no IC50 obtained, no significant activity in tested concentration range), 3 µg/mL; in data set [11] (Homo sapiens, SW-620, 72 h), 6.54 µM; in data set [11] (listed as compound 2), below 6.8 µM; in [11], below 6.81 µM; in data set [12] it was 3.13 µg/mL to 5.97 µg/mL and 6.82 µM to 13 µM. Also, the results for the IC50 in data set [13] (setting [15]) and in data set [13] were 5.78 ± 0.07 µg/mL and 12.6 ± 0.15 µM, respectively. Further, the cell morphology result in the data set with Hs27 cells [4] is “no morphological changes were observed”; with SW620 cells [10] (SW620, 24 h), “No significant change in the cell morphology”; in the data set on SW620 cells [10] (SW620, 48 h) it was “vacuolation could be seen inside the cells”; with SW620 cells [10] (SW620, 72 h), “apparent DNA condensation within the nucleus was visible”; in the data set on SW620 cells [10] (SW620, 96 h), “significantly higher levels of cells with DNA condensation within their nucleus”. Further, the IC50 at 72 h in data set [5] (Hs27, 72 h exposure) is 1.3 ± 0.33 µM; in data set [5] (Hs27 non-transformed control, 72 h exposure, mean ± 1 SE), 5.97 ± 0.15 µg/mL. Moreover, the “evidence of fragmentation of the DNA” value in the data set on Hs27 cells [6] and in the data set with SW620 cells [7] was “neither as an apoptotic ladder nor a general degradation smear” in each case. The “IC50, in vitro antiproliferative/cytotoxic activity” value was below 3.125 µg/mL in data set [11] (setting [15]) and below 3.13 µg/mL in data set [11] (mean ± 1 SE, ND in Table 4 = no IC50 obtained, no significant activity in tested concentration range, listed as compound 2). Besides, in [11] (in terms of molarity), the “fold lower IC50 on SW620 than IC50 of CAPE on CRC” value is “over 3.3 fold”.
